Publication PMC13672995, “NCR13 peptide protects soybean against Cercospora sojina using multi-faceted modes of action and additive interaction with chemical fungicides” (Journal of Experimental Botany, 2025)
Where no end group is shown, it is not given here.

What was measured:
[1] = Peroxidase assay (TMB substrate); type: biochemical; details: heme 5 µM, peptide 5 µM, absorption at 370 nm and 652 nm
Description: A Pierce TMB substrate kit (Thermo Scientific) was used to measure the peroxidase activity of heme. In a transparent 96-well plate, 50 µl of TMB substrate and 50 µl of […] were added followed by addition of heme (5 µM) or peptides plus heme (5 µM each). The reaction progression was measured in the Tecan plate reader, by recording UV-vis absorption values at 370 nm and 652 nm for every minute up to 1 h.

[2] = tested on: C. sojina QoI fungicide-resistant isolate Cs350; type: cell-based, Cercospora sojina
Description: (§1) In vitro antifungal activity of AFPs and QoI fungicides was determined using 96-well plate assays as described ([Velivelli et al., 2020]) with slight modifications. Briefly, 2- to 3-week-old C. sojina was used to make a conidial suspension in 2× SFM at the final concentration of ∼10^5 conidia ml^−1. Simultaneously, peptide dilutions (in water) at various concentrations were made. Fungicides were dissolved in 50% acetone and 50% water to make a stock solution of 500 µM, and serial dilutions were made in water as needed. The peptide–conidia or the fungicide–conidia mixture at the ratio of 1:1 (45 µl:45 µl) was added in a 96-well plate and incubated at room temperature for 48 h, after which MICs of the peptides/fungicides were calculated based on microscopy as well as the resazurin cell viability assay ([Velivelli et al., 2020]).

[3] = tested on: C. sojina QoI fungicide-sensitive isolate Cs320; test: microbe, parasite or virus in culture; type: cell-based, Cercospora sojina
Description: as §1

[4] = tested on: fungicide-sensitive and -resistant isolates of C. sojina; test: In vitro antifungal activity assay (MIC stated across isolates); type: cell-based, Cercospora sojina
Description: as §1

[5] = Heme-peptide binding assay (colour change); details: equimolar heme and peptide, 100 µM, 1 h, room temperature
Description: Heme solutions were freshly prepared by dissolving hemin chloride (Sigma Cat No: 3741) in 0.1 M NaOH and used within an hour after preparation. Two heme-sequestering peptides, NCR247 and NCR455 ([Montiel et al., 2017]; [Sankari et al., 2022]), were used as positive controls, and water-only treatment as a negative control. The equimolar concentration of heme and peptide (100 µM) or water were mixed and incubated at room temperature for 1 h. When dissolved in NaOH, heme is light to dark brown in color; however, when it binds to a peptide, the color changes to reddish-brown as described by [Sankari et al. (2022)]. The change in color of heme to reddish-brown indicated the heme binding ability of the peptide.

[6] = tested on: azoxystrobin-resistant C. sojina Cs350 conidia; test: Cell death detection assay (propidium iodide, confocal microscopy); type: cell-based, Cercospora sojina; details: azoxystrobin 48 μM alone; within 1 h; PI staining; n=3
Description: The fungicidal activity of azoxystrobin and peptide NCR13_PFV1 in azoxystrobin-resistant C. sojina Cs350 was analyzed by visualizing the influx of a cell death indicator dye propidium iodide (PI) using time-lapse confocal microscopy. The C. sojina conidia were treated with various concentrations of azoxystrobin, NCR13_PFV1, azoxystrobin plus NCR13_PFV1, or water and 0.5 μg ml^–1 PI, and were observed under confocal microscopy at an excitation and emission wavelength of 500 nm and 545–690 nm, respectively. Z-stacks at each time point were acquired using a ×63 water immersion objective lens (HC PL Apochromat CS2). For each sample, the number of live and dead cells after 1 h of peptide, fungicide, or combination treatment was determined.

[7] = tested on: C. sojina Cs320 (fungicide sensitive); test: Peptide-fungicide checkerboard assay; type: cell-based, Cercospora sojina; details: Cs320, in vitro, 96 h
Description: (§2) Synergy between NCR13_PFV1 and the widely used QoI foliar fungicides, azoxystrobin (Sigma-Aldrich, Cat No: 31697), trifloxystrobin (Sigma-Aldrich, Cat No: 46447), and pyraclostrobin (Sigma-Aldrich, Cat No: 33696), were evaluated using checkerboard assays. This assay was performed in a 96-well plate and the preparation of conidial suspension, peptide dilutions, and fungicide dilutions were similar to the in vitro antifungal activity assay described above. The presence of an alternative respiration pathway allows some fungi including C. sojina to germinate even in the presence of a high dose of QoI fungicides in vitro ([Ziogas et al., 1997]; [Zhang et al., 2012]). Therefore, to prevent alternative respiration in C. sojina, salicylhydroxamic acid (SHAM) was added in each reaction at the final concentration of 60 µg ml^–1 ([Zhang et al., 2012]). The conidia, peptide, fungicide, and SHAM were added in a 96-well plate at the v/v ratio of 4:1:1:2 (50 µl:12.5 µl:12.5 µl:25 µl) in the final reaction volume of 100 µl, and the plate was incubated at room temperature for 96 h (4 d). After 96 h, MIC values of the peptide–fungicide combination, peptide alone, and fungicide alone were calculated based on microscopy as well as the resazurin cell viability assay. The fractional inhibitory concentration (FIC) index was calculated using the formula FIC = (MICA+B/MICA) + (MICB+A/MICB), where MICA and MICB are the MIC for peptide (A) alone and fungicide (B) alone, respectively, MICA+B is the MIC for peptide in combination with fungicide (A+B), and MICB+A is the MIC for fungicide in combination with peptide (B+A). The FIC index was interpreted as: synergistic, ≤0.5; additive, >0.5–1.0; indifferent, >1 to <4.0; or antagonistic, ≥4.0.

[8] = tested on: C. sojina Cs350 (fungicide resistant); test: Peptide-fungicide checkerboard assay; type: cell-based, Cercospora sojina
Description: as §2

[9] = tested on: C. sojina Cs350 on soybean cv. Blackhawk (FLS); test: In planta post-inoculation assay of NCR13_PFV1 and azoxystrobin combinations; type: in vivo, Cercospora sojina; details: azoxystrobin alone sprayed at 3 µM and 6 µM
Description: To further test additive/synergistic interaction between NCR13_PFV1 and azoxystrobin against the fungicide-resistant isolate Cs350, in planta assays were performed. These assays were similar to the post-inoculation in planta assays as mentioned above. Briefly, second or third trifoliate leaves of soybean were first sprayed with 1 ml of Cs350 conidial suspension (1×10^5 ml^−1) followed by spray application with 1 ml of NCR13_PFV1 (24 µM) or azoxystrobin (3 µM or 6 µM) or their combination (24 µM NCR13_PFV1 plus 3 µM azoxystrobin or 24 µM NCR13_PFV1 plus 6 µM azoxystrobin) or water after 2 h of pathogen inoculation. Plants were incubated in the growth chamber, and disease scoring was done as described above.

[10] = tested on: C. sojina Cs350 conidia and germlings; test: Plasma membrane permeabilization assay (SYTOX Green); type: cell-based, Cercospora sojina; details: Cs350; 0.5 µM SG; confocal microscopy
Description: Membrane permeabilization of C. sojina Cs350 by NCR13_PFV1 and azoxystrobin was analyzed by visualizing the influx of SYTOX Green (SG) (Thermo Scientific) using time-lapse confocal microscopy. Germlings grown for 6–8 h or conidia of C. sojina were mixed with various concentrations of NCR13_PFV1, azoxystrobin, or both and 0.5 µM SG and were observed under confocal microscopy at an excitation wavelength of 500 nm and an emission wavelength ranging from 510 nm to 600 nm at specific time intervals. A z-stack at each time point was acquired using a ×63 water immersion objective lens (HC PL Apochromat CS2).

[11] = SFM, ~10^5 conidia ml−1, room temperature, 48 h, resazurin cell viability assay and microscopy

Row | Molecule | peroxidase activity of heme and FeSO4 in the presence of peptide [1] | fold increase of MIC with increasing iron concentration ([2]; FeSO4 in SFM) [fold] | MIC (μM) against C. sojina, Fungicide resistant, Cs350 [2, 11] [µM] | MIC (μM) against C. sojina isolates, Fungicide sensitive, Cs320 [3, 11] [µM] | fold less potent than NCR13_PFV1 ([4]; from MIC against C. sojina) [fold] | MIC against fungicide-sensitive and -resistant isolates of C. sojina ([4]; range over Cs320 and Cs350, 48 h) [µM] | heme binding (colour change of heme from brown to reddish-brown) [5] | cell death [6] [%] | interaction with NCR13_PFV1 by FIC index [7] | interaction with NCR13_PFV1 by FIC index ([8]; Cs350, in vitro, 96 h) | FIC score ([8]; pair azoxystrobin / NCR13_PFV1, Cs350, 4 d) | Combination MIC ([8]; pair azoxystrobin / NCR13_PFV1, Cs350, 4 d, SHAM 60 µg ml–1, microscopy) [µM] | MIC ([8]; pair azoxystrobin / NCR13_PFV1, Cs350, 4 d, SHAM 60 µg ml–1, microscopy, highest fungicide concentration 48 µM, read-out: Individual MIC) [µM] | FLS symptoms in planta [9] | MIC (µM) against Fungicide sensitive C. sojina isolate (Cs320) ([3]; QoI fungicides, determined in 2 days, 0.02 µM lowest concentration tested) [µM] | plasma membrane permeabilization (SYTOX Green uptake) [10]
1 | TKPCQSDKDCKKFACRKPKVPKCINGFCKCVR (disulfide (positions not given here)) [NCR13_PFV2] | not reduced or stopped | 2 | 3 | 1.5 | 2 | 1.5 to 3 | no such color change |  |  |  |  |  |  |  |  | 
2 | CO/C=C(/C(=O)OC)c1ccccc1Oc1cc(Oc2ccccc2C#N)ncn1 [Azoxystrobin, azoxystrobin] |  |  |  |  |  |  |  | 11 | additive (additive, >0.5–1.0) | additive (additive, >0.5–1.0) | ≤ 1 | 48 | > 48 | able to reduce FLS symptoms in planta | 0.09 to 0.18 | did not permeabilize the plasma membrane
3 | RNGCIVDPRCPYQQCRRPLYCRRR [NCR247, reference compound] | reduced or stopped |  |  |  |  |  | visible color change of heme from brown to reddish-brown |  |  |  |  |  |  |  |  | 
